{"source": "paper PMC10221222", "about": "(Pharmaceutics, 2023)", "key": {"SW480 (colon carcinoma) [1]": {"test_system": "SW480 (colon carcinoma)", "conditions": "MTT, 96 h exposure; cited from earlier work"}, "[2]": {"test_system": "CH1/PA-1 (ovarian teratocarcinoma)", "conditions": "MTT, 96 h exposure; cited from earlier work"}, "[3]": {"test_system": "A549 (non-small cell lung cancer)", "conditions": "MTT, 96 h exposure; cited from earlier work"}, "[4]": {"test_system": "A549 (non-small cell lung cancer)", "experiment": "MTT cytotoxicity assay, 96 h exposure, A549 cells", "type": "cell-based, human", "conditions": "pertains to dendrimer concentration for C1–C24", "experimental": "(§1) Culture of and 96 h cytotoxicity tests in the human cell lines CH1/PA-1 (ovarian teratocarcinoma), SW480 (colon carcinoma) and A549 (non-small cell lung cancer) were performed as described previously, with the exception that test compounds were dissolved either in sterile water or supplemented MEM and then serially diluted in the latter medium.\n(§2) Three human cancer cell lines differing in their chemosensitivity were employed for testing the cytotoxic potencies of all compounds: the broadly sensitive ovarian teratocarcinoma cell line CH1/PA-1, the multidrug-resistant non-small cell lung cancer cell line A549 and the colon cancer cell line SW480 with mostly intermediate sensitivity. This pattern of sensitivity also reflects throughout the data compiled here."}, "[5]": {"test_system": "CH1/PA-1 (ovarian teratocarcinoma)", "experiment": "MTT cytotoxicity assay, 96 h exposure, CH1/PA-1 cells", "type": "cell-based, human", "conditions": "pertains to dendrimer concentration for C1–C24", "experimental": "as §1\nas §2, with “sensitivity.” for “sensitivity. This pattern of sensitivity also reflects throughout the data compiled here.”"}, "[6]": {"experiment": "Reduction by ascorbic acid followed by time-dependent 1H NMR", "type": "physicochemical", "conditions": "for Reduction Half-Time: 1 mM Pt, 25 eq. ascorbic acid, phosphate-buffered D2O pD 7.4, ambient temperature; for percentage of the reduced species when measurement was stopped before the half-time: 1:25 ascorbic acid, pD 7.4, ambient temperature, at the time given as bound of the half-time", "experimental": "The reduction of platinum(IV) complexes and representatives of each series of conjugates by ascorbic acid was observed by ^1H NMR spectroscopic measurements at ambient temperature. An amount of 1 mM solutions of platinum(IV) complexes 1–3, 5–7 as well as of the conjugates C2, C11, C13, C22–C24 referred to their corresponding platinum units were prepared in a D2O phosphate-buffered solution (50 mM) at physiological pD = 7.4. Afterwards, ascorbic acid was added as a reducing agent (25 mM, 25 eq.) and ^1H NMR measurements were performed for several days. The reduction behavior for substances 1–3, 5, 6, C2, C11, C13, C22, C23 was monitored by the resulting decrease in intensity of the acetato signal (release of acetic acid). The percentage of reduced species was determined by using the integration ratios of these two signals. Contrarily, ratios of signals of the succinato ligands and free succinic acid were consulted for the reduction determination of substances 7 and C24. However, the reduction half-time of C24 could not be obtained due to the superimposition of the succinato peaks with other signals.\nMoreover, the reduction behavior of conjugates in comparison to unattached platinum(IV) complexes was investigated by time-dependent ^1H NMR spectroscopy (Table 3). In general, the reduction behavior is influenced by the nature of the ligands coordinated to the platinum(IV) core. […] In accordance with previous studies, the cisplatin core of substance 1 led to a faster reduction with a reduction half-time of 6 h, whereas only 6% of the carboplatin(IV) analog 2 was reduced after 95 h. Similar to complex 1, the two chlorido ligands of compound 6 allow fast electron transfer, thereby supporting rapid reduction. […] A potential connection between bulkiness and facilitated reduction has been reported in the literature. As further expected, the influence between G2 and G4 dendrimers on the reduction behavior is marginal due to the huge distance to the platinum(IV) core. Therefore, no significant difference in the rate of reduction between conjugates of G2 and G4 dendrimers was observed based on the measurements of C2 and C13, respectively."}, "SW480 (colon carcinoma) [7]": {"test_system": "SW480 (colon carcinoma)", "experiment": "MTT cytotoxicity assay, 96 h exposure, SW480 cells", "type": "cell-based, human", "conditions": "pertains to dendrimer concentration for C1–C24", "experimental": "as §1, §2"}, "[8]": {"experiment": "Tumor, organ and blood distribution of platinum by ICP-MS", "type": "in vivo, male CT26-allograft-bearing BALB/c mice", "conditions": "24 h after second application", "experimental": "Blood was taken after 30 min and 24 h after the first application from the facial vein and terminally by cardiac puncture 24 h after the second application. To separate serum from blood pellet, blood was twice spun down at 900 g for 10 min at 4 °C. The platinum amount of all samples was measured by ICP-MS.\nRenal excretion and glomerular filtration are typical for ≤G4 PAMAM dendrimers and in general for nanoparticles smaller than 5 nm. […] Additionally, the influence of the molecular weight of nanoparticles on the biodistribution behavior was reported previously. […] On the contrary, the efficient kidney accumulation of this dendrimer preparation might also be considered in kidney-specific drug delivery approaches."}, "[9]": {"test_system": "CT26 murine colon cancer cells", "experiment": "MTT assay in murine cell line CT26", "type": "cell-based", "conditions": "72 h exposure", "procedure": "The MTT assay in the murine cell line CT26 was performed as described in [25].\ncells, obtained by MTT assays with 72 h exposure time."}, "[10]": {"set-up": "method as in PMID 10222430", "conditions": "cited from earlier work"}, "[11]": {"test_system": "CT26 murine colon cancer allograft", "experiment": "Efficacy study in CT26-allograft-bearing mice (tumor volume, survival)", "type": "in vivo, BALB/c mice", "conditions": "vs solvent control; i.v. twice a week for two weeks; C12 7.5 mg/kg, cisplatin 3 mg/kg", "experimental": "All drugs were dissolved in 0.9% NaCl.\nThe promising effects further translate into a prolongation trend of animal survival (Figure 4). While in the cisplatin group, weight loss was critical in addition to tumor necrosis, even smaller tumors tended to get necrotic and broke up in C12-treated animals, making the sacrifice of the animals necessary due to ethical guidelines."}}, "note": "Like-named read-outs stand apart in the source and are kept apart here.", "data": [{"molecule": "N.N.O=C([O-])C1(C(=O)[O-])CCC1.[Pt+2]", "note": "[Carboplatin, reference compound]", "values": [{"measurement": "IC50", "setting": "SW480 (colon carcinoma) [1]", "value": "42 ± 10", "unit": "µM"}, {"measurement": "IC50", "setting": "[2]", "value": "0.79 ± 0.11", "unit": "µM"}, {"measurement": "IC50", "setting": "[3]", "value": "38 ± 3", "unit": "µM"}]}, {"molecule": "O=C1[O][Pt]2([NH][C@@H]3CCCC[C@H]3[NH]2)[O]C1=O", "note": "[Oxaliplatin, reference compound]", "values": [{"measurement": "IC50", "setting": "SW480 (colon carcinoma) [1]", "value": "0.29 ± 0.05", "unit": "µM"}, {"measurement": "IC50", "setting": "[2]", "value": "0.18 ± 0.01", "unit": "µM"}, {"measurement": "IC50", "setting": "[3]", "value": "0.98 ± 0.21", "unit": "µM"}]}, {"molecule": "(OC-6-44)-Acetato(3-carboxypropanoato)dichlorido(1R,2R-cyclohexane-1,2-diamine)platinum(IV) [Complex 6]", "values": [{"measurement": "IC50", "setting": "[4]", "value": "2.8 ± 0.1", "unit": "µM"}, {"measurement": "IC50", "setting": "[5]", "value": "0.44 ± 0.1", "unit": "µM"}, {"measurement": "Reduction Half-Time", "setting": "[6]", "value": "~27", "unit": "h"}, {"measurement": "IC50", "setting": "SW480 (colon carcinoma) [7]", "value": "0.85 ± 0.14", "unit": "µM"}]}, {"molecule": "(OC-6-44)-Acetatodiammine(3-carboxypropanoato)dichloridoplatinum(IV) [Complex 1]", "values": [{"measurement": "IC50", "setting": "SW480 (colon carcinoma) [1]", "value": "47 ± 11", "unit": "µM"}, {"measurement": "Reduction Half-Time", "setting": "[6]", "value": "~6", "unit": "h"}, {"measurement": "IC50", "setting": "[2]", "value": "1.2 ± 0.5", "unit": "µM"}, {"measurement": "IC50", "setting": "[3]", "value": "99 ± 17", "unit": "µM"}]}, {"molecule": "(OC-6-44)-(3-carboxypropanoato)(1R,2R-cyclohexanem-1,2-diamine)hydroxidooxalatoplatinum(IV) [Complex 7]", "values": [{"measurement": "IC50", "setting": "[4]", "value": "66 ± 2", "unit": "µM"}, {"measurement": "IC50", "setting": "[5]", "value": "5.2 ± 0.8", "unit": "µM"}, {"measurement": "Reduction Half-Time", "setting": "[6]", "value": "~29", "unit": "h"}, {"measurement": "IC50", "setting": "SW480 (colon carcinoma) [7]", "value": "20 ± 3", "unit": "µM"}]}, {"molecule": "N.N.[Cl][Pt][Cl]", "note": "[Cisplatin]", "values": [{"measurement": "IC50", "setting": "SW480 (colon carcinoma) [1]", "value": "2.3 ± 0.2", "unit": "µM"}, {"measurement": "platinum content of blood cells", "setting": "[8]; 30 min and 24 h after first", "value": "blood cells contained enhanced platinum contents"}, {"measurement": "platinum levels in lung tissue", "setting": "[8]", "value": "higher levels were detected in lung tissue"}, {"measurement": "IC50", "setting": "[9]", "value": 1.85, "unit": "µM"}, {"measurement": "maximum tolerated dosage", "setting": "[10]", "value": 3, "unit": "mg/kg"}, {"measurement": "IC50", "setting": "[2]", "value": "0.073 ± 0.001", "unit": "µM"}, {"measurement": "maximum tumor growth inhibition effect", "setting": "[11]", "value": 47.6, "unit": "%"}, {"measurement": "IC50", "setting": "[3]", "value": "3.8 ± 1", "unit": "µM"}]}, {"molecule": "(OC-6-44)-Acetato(3-carboxypropanoato)(1R,2R-cyclohexane-1,2-diamine)oxalatoplatinum(IV) [Complex 3]", "values": [{"measurement": "IC50", "setting": "SW480 (colon carcinoma) [1]", "value": "22 ± 8", "unit": "µM"}, {"measurement": "Reduction Half-Time", "setting": "[6]", "value": "> 165", "unit": "h"}, {"measurement": "percentage of the reduced species when measurement was stopped before the half-time", "setting": "[6]", "value": 14, "unit": "%"}, {"measurement": "IC50", "setting": "[2]", "value": "4.1 ± 0.6", "unit": "µM"}, {"measurement": "IC50", "setting": "[3]", "value": "70 ± 29", "unit": "µM"}]}, {"molecule": "(OC-6-44)-Acetaodiammine(3-carboxypropanoato)(cyclobutane-1,1-dicarboxylato)platinum(IV) [Complex 2]", "values": [{"measurement": "IC50", "setting": "SW480 (colon carcinoma) [1]", "value": "> 200", "unit": "µM"}, {"measurement": "Reduction Half-Time", "setting": "[6]", "value": "> 95", "unit": "h"}, {"measurement": "percentage of the reduced species when measurement was stopped before the half-time", "setting": "[6]", "value": 6, "unit": "%"}, {"measurement": "IC50", "setting": "[2]", "value": "16 ± 6", "unit": "µM"}, {"measurement": "IC50", "setting": "[3]", "value": "> 200", "unit": "µM"}]}, {"molecule": "(OC-6-54)-Acetato(3-carboxypropanoato)(^13C2)oxalato(1R,2R,4R/1S,2S,4S)-(4-trifluoromethyl-cyclohexane-1,2-diamine)platinum(IV) [Complex 5]", "values": [{"measurement": "IC50", "setting": "[4]", "value": "54 ± 6", "unit": "µM"}, {"measurement": "IC50", "setting": "[5]", "value": "6 ± 0.9", "unit": "µM"}, {"measurement": "Reduction Half-Time", "setting": "[6]", "value": "> 93", "unit": "h"}, {"measurement": "percentage of the reduced species when measurement was stopped before the half-time", "setting": "[6]", "value": "~23", "unit": "%"}, {"measurement": "IC50", "setting": "SW480 (colon carcinoma) [7]", "value": "33 ± 5", "unit": "µM"}]}]}
